For orientation: IC50 means the point on the concentration scale where inhibition reaches its midpoint.

Structures are written as SMILES.

The text below walks through data of patent publication US8044208B2 (Sanofi-Aventis, priority 2005, dated 2011).

In this test the target is T1, TAFIa (Homo sapiens, UniProt Q96IY4).
T1 construct: purchased American Diagnostica 874TAFIA
T1 sequence (Q96IY4 115-423): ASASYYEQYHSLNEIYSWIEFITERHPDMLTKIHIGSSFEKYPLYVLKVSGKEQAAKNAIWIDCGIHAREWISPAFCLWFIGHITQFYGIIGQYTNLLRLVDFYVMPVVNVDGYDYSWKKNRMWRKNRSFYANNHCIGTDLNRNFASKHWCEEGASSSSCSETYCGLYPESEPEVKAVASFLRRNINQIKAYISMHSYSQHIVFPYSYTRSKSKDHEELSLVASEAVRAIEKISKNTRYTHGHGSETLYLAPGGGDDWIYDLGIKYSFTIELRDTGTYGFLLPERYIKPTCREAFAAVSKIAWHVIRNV
As to the kind of experiment: TAFIa enzyme assay (Actichrome plasma TAFI activity kit). To be noted: 15 min preincubation at room temperature, read at 420 nm, duplicate determination. The test is classed as biochemical. Here is the method:
The prepared substances were tested for TAFIa inhibition using the Actichrome plasma TAFI activity kit from American Diagnostica (Pr. No. 874). This entailed adding 29 μl of assay buffer (20 mM Hepes, 150 mM NaCl, pH 7.4) and 10 μl of TAFIa (American Diagnostica Pr. No. 874TAFIA; […]) to 1 μl of 5 mM DMSO solution of the substance and incubating in a 96 half-well microtiter plate at room temperature for 15 minutes. The enzymic reaction was started by adding 10 μl of TAFIa developer (prediluted 1:2 with water). The time course of the reaction was followed at 420 nm in a microtiter plate reader (SpectraMax plus 384; Molecular Devices) for 15 minutes. The IC50 values were calculated from the averaged values (duplicate determination) of serial dilutions of the substance with the aid of the Software Grafit 4 (Erithacus Software, UK).
`CC(C)(C)c1nnc(Cn2cnc(C(Cc3ccc(N)nc3)C(=O)O)c2)s1` (centres unmarked) [Example 9, 3-(6-Aminopyridin-3-yl)-2-[1-(5-tert-butyl-[1,3,4]thiadiazol-2-ylmethyl)-1H-imidazol-4-yl]propionic acid] showed an IC50 of 0.169 µM.
In the case of `Cc1cc(CC(C(=O)O)c2cn(Cc3nnc(C4CC4)s3)cn2)cnc1N` (centres unmarked) [Example 61, 3-(6-Amino-5-methylpyridin-3-yl)-2-[1-(5-cyclopropyl-[1,3,4]thiadiazol-2-ylmethyl)-1H-imidazol-4-yl]propionic acid] it was 0.026 µM; in that of `Nc1ccc(CC(C(=O)O)c2cn(Cc3noc(-c4ccc(C(F)(F)F)cc4)n3)cn2)cn1` (centres unmarked) [Example 10, 3-(6-Aminopyridin-3-yl)-2-{1-[5-(4-trifluoromethylphenyl)-[1,2,4]oxadiazol-3-ylmethyl]-1H-imidazol-4-yl}propionic acid], 0.258 µM.
`Nc1ccc(CC(C(=O)O)c2cn(Cc3nnc(C4CC4)s3)cn2)cn1` (centres unmarked) [Example 12, 3-(6-Aminopyridin-3-yl)-2-[1-(5-cyclopropyl-[1,3,4]thiadiazol-2-ylmethyl)-1H-imidazol-4-yl]propionic acid] gave an IC50 of 0.03 µM.
As to `COc1ccc(-c2nnc(Cn3cnc(C(Cc4ccc(N)nc4)C(=O)O)c3)s2)cc1` (centres unmarked) [Example 22, 3-(6-Aminopyridin-3-yl)-2-{1-[5-(4-methoxyphenyl)-[1,3,4]thiadiazol-2-ylmethyl]-1H-imidazol-4-yl}propionic acid], the IC50 amounted to 0.078 µM.
In the case of `COc1ccc(-c2cc(Cn3cnc(C(Cc4ccc(N)nc4)C(=O)O)c3)no2)cc1` (centres unmarked) [Example 5, 3-(6-Aminopyridin-3-yl)-2-{1-[5-(4-methoxyphenyl)isoxazol-3-ylmethyl]-1H-imidazol-4-yl}propionic acid] it was 0.104 µM; in that of `Nc1ccc(CC(C(=O)O)c2cn(Cc3cc(-c4ccc(Cl)s4)on3)cn2)cn1` (centres unmarked) [Example 1, 3-(6-Aminopyridin-3-yl)-2-{1-[5-(5-chlorothiophen-2-yl)isoxazol-3-ylmethyl]-1H-imidazol-4-yl}propionic acid], 0.041 µM; in that of `CCC(C)c1ccc(-c2cc(Cn3cnc(C(Cc4ccc(N)nc4)C(=O)O)c3)no2)cc1` (centres unmarked) [Example 46, 3-(6-Aminopyridin-3-yl)-2-{1-[5-(4-sec-butylphenyl)isoxazol-3-ylmethyl]-1H-imidazol-4-yl}propionic acid], 0.003 µM.
Take `COc1ccc(-c2nc(Cn3cnc(C(Cc4ccc(N)nc4)C(=O)O)c3)no2)cc1` (centres unmarked) [Example 15]: inhibition was half-maximal at 0.223 µM (IC50).
In the case of `Nc1ccc(C[C@H](C(=O)O)c2cn(Cc3cc(-c4ccc(Cl)s4)on3)cn2)cn1` [Example 58, (S)-3-(6-Aminopyridin-3-yl)-2-{1-[5-(5-chlorothiophen-2-yl)isoxazol-3-ylmethyl]-1H-imidazol-4-yl}propionic acid] it was 0.004 µM; in that of `Nc1ccc(CC(C(=O)O)c2cn(Cc3nnc(-c4ccc(Cl)cc4)s3)cn2)cn1` (centres unmarked) [Example 8, 3-(6-Aminopyridin-3-yl)-2-{1-[5-(4-chlorophenyl)-[1,3,4]thiadiazol-2-ylmethyl]-1H-imidazol-4-yl}propionic acid], 0.041 µM; in that of `CC(C)(C)c1ccc(-c2noc(Cn3cnc(C(Cc4ccc(N)nc4)C(=O)O)c3)n2)cc1` (centres unmarked) [Example 17, 3-(6-Aminopyridin-3-yl)-2-{1-[3-(4′-tert-butylphenyl)-[1,2,4]oxadiazol-5-ylmethyl]-1H-imidazol-4-yl}propionic acid], 0.745 µM.
In the case of `Nc1ccc(CC(C(=O)O)c2cn(Cc3cnc(-c4ccc(Cl)s4)s3)cn2)cn1` (centres unmarked) [Example 3, 3-(6-Aminopyridin-3-yl)-2-{1-[2-(5-chlorothiophen-2-yl)thiazol-5-ylmethyl]-1H-imidazol-4-yl}propionic acid] it was 0.326 µM; in that of `Cc1nc(-c2cc(Cn3cnc(C(Cc4ccc(N)nc4)C(=O)O)c3)no2)cs1` (centres unmarked) [Example 18, 3-(6-Aminopyridin-3-yl)-2-{1-[5-(2-methylthiazol-4-yl)isoxazol-3-ylmethyl]-1H-imidazol-4-yl}propionic acid], 0.326 µM.
